US12544395B2, “Combination compositions comprising a beta-lactamase inhibitor and uses thereof” (priority 2018, dated 2026)

What was measured:
Type in all cases: cell-based
[1] = system: K. pneumoniae BAA 1705; assay: Broth microdilution MIC (strain KPC-producing)
[2] = system: K. pneumoniae ESBL 10; assay: Broth microdilution MIC (strain enzymes: SHV-12, TEM-1)
[3] = system: K. pneumoniae KP 4; assay: Broth microdilution MIC (strain enzymes: SHV-2a, SHV-5, TEM-1)
[4] = system: K. pneumoniae KI (KCl); assay: Broth microdilution MIC (strain enzymes: TEM-10)
[5] = system: E. coli ESBL 5; assay: Broth microdilution MIC (strain enzymes: CTX-M15, TEM-1)
[6] = system: K. pneumoniae 170375; assay: Broth microdilution MIC (strain enzymes: SHV-12, CTX-M15 and TEM-1)
[7] = system: panel of ESBL-producing Enterobacteriaceae (40 strains); assay: Broth microdilution MIC50/MIC90 summary over the panel; settings: with inhibitor at 1 μg/mL

CCC(=O)N[C@H]1Cc2cccc(C(=O)O)c2OB1O [Compound 2, (R)-2-hydroxy-3-propionamido-3,4-dihydro-2H-benzo[e][1,2]oxaborinine-8-carboxylic acid]
MIC of ceftibuten (CTB) ([1]; with inhibitor at 2 μg/mL): 0.5 µg/mL
MIC of cefalexin (LEX) ([1]; with inhibitor at 4 μg/mL): 1 µg/mL
MIC of cefdinir (CDR) ([1]; with inhibitor at 4 μg/mL): 1 µg/mL
MIC of cefixime (CFM) ([1]; with inhibitor at 4 μg/mL): 0.25 µg/mL
MIC of ceftibuten (CTB) ([1]; with inhibitor at 4 μg/mL): 0.25 µg/mL
MIC of cefalexin (LEX) ([2]; with inhibitor at 1 μg/mL): 1 µg/mL
MIC of cefdinir (CDR) ([2]; with inhibitor at 1 μg/mL): 1 µg/mL
MIC of cefixime (CFM) ([2]; with inhibitor at 1 μg/mL): 2 µg/mL
MIC of ceftibuten (CTB) ([2]; with inhibitor at 1 μg/mL): 0.25 µg/mL
MIC of cefalexin (LEX) ([2]; with inhibitor at 2 μg/mL): 1 µg/mL
MIC of cefdinir (CDR) ([2]; with inhibitor at 2 μg/mL): 1 µg/mL
MIC of cefixime (CFM) ([2]; with inhibitor at 2 μg/mL): 1 µg/mL
MIC of ceftibuten (CTB) ([2]; with inhibitor at 2 μg/mL): 0.25 µg/mL
MIC of cefalexin (LEX) ([2]; with inhibitor at 4 μg/mL): 0.5 µg/mL
MIC of cefdinir (CDR) ([2]; with inhibitor at 4 μg/mL): 0.5 µg/mL
MIC of cefixime (CFM) ([2]; with inhibitor at 4 μg/mL): 0.5 µg/mL
MIC of ceftibuten (CTB) ([2]; with inhibitor at 4 μg/mL): 0.25 µg/mL
MIC of cefalexin (LEX) ([3]; with inhibitor at 1 μg/mL): 0.5 µg/mL
MIC of cefdinir (CDR) ([3]; with inhibitor at 1 μg/mL): 0.5 µg/mL
MIC of cefixime (CFM) ([3]; with inhibitor at 1 μg/mL): 2 µg/mL
MIC of ceftibuten (CTB) ([3]; with inhibitor at 1 μg/mL): 0.25 µg/mL
MIC of cefalexin (LEX) ([3]; with inhibitor at 2 μg/mL): 0.5 µg/mL
MIC of cefdinir (CDR) ([3]; with inhibitor at 2 μg/mL): 0.5 µg/mL
MIC of cefixime (CFM) ([3]; with inhibitor at 2 μg/mL): 0.5 µg/mL
MIC of ceftibuten (CTB) ([3]; with inhibitor at 2 μg/mL): 0.125 µg/mL
MIC of cefalexin (LEX) ([3]; with inhibitor at 4 μg/mL): 0.125 µg/mL
MIC of cefdinir (CDR) ([3]; with inhibitor at 4 μg/mL): 0.125 µg/mL
MIC of cefixime (CFM) ([3]; with inhibitor at 4 μg/mL): 0.25 µg/mL
MIC of ceftibuten (CTB) ([3]; with inhibitor at 4 μg/mL): 0.125 µg/mL
MIC of cefalexin (LEX) ([4]; with inhibitor at 1 μg/mL): 0.125 µg/mL
MIC of cefdinir (CDR) ([4]; with inhibitor at 1 μg/mL): 0.125 µg/mL
MIC of cefixime (CFM) ([4]; with inhibitor at 1 μg/mL): 1 µg/mL
MIC of ceftibuten (CTB) ([4]; with inhibitor at 1 μg/mL): 0.125 µg/mL
MIC of cefalexin (LEX) ([4]; with inhibitor at 2 μg/mL): 0.125 µg/mL
MIC of cefdinir (CDR) ([4]; with inhibitor at 2 μg/mL): 0.125 µg/mL
MIC of cefixime (CFM) ([4]; with inhibitor at 2 μg/mL): 1 µg/mL
MIC of ceftibuten (CTB) ([4]; with inhibitor at 2 μg/mL): 0.06 µg/mL
MIC of cefalexin (LEX) ([4]; with inhibitor at 4 μg/mL): 0.125 µg/mL
MIC of cefdinir (CDR) ([4]; with inhibitor at 4 μg/mL): 0.125 µg/mL
MIC of cefixime (CFM) ([4]; with inhibitor at 4 μg/mL): 0.25 µg/mL
MIC of ceftibuten (CTB) ([4]; with inhibitor at 4 μg/mL): 0.125 µg/mL
MIC of cefalexin (LEX) ([5]; with inhibitor at 1 μg/mL): 8 µg/mL
MIC of cefdinir (CDR) ([5]; with inhibitor at 1 μg/mL): 8 µg/mL
MIC of cefixime (CFM) ([5]; with inhibitor at 1 μg/mL): 1 µg/mL
MIC of ceftibuten (CTB) ([5]; with inhibitor at 1 μg/mL): 0.25 µg/mL
MIC of cefalexin (LEX) ([5]; with inhibitor at 2 μg/mL): 2 µg/mL
MIC of cefdinir (CDR) ([5]; with inhibitor at 2 μg/mL): 2 µg/mL
MIC of cefixime (CFM) ([5]; with inhibitor at 2 μg/mL): 1 µg/mL
MIC of ceftibuten (CTB) ([5]; with inhibitor at 2 μg/mL): 0.125 µg/mL
MIC of cefalexin (LEX) ([5]; with inhibitor at 4 μg/mL): 2 µg/mL
MIC of cefdinir (CDR) ([5]; with inhibitor at 4 μg/mL): 2 µg/mL
MIC of cefixime (CFM) ([5]; with inhibitor at 4 μg/mL): 0.5 µg/mL
MIC of ceftibuten (CTB) ([5]; with inhibitor at 4 μg/mL): 0.125 µg/mL
MIC of cefalexin (LEX) ([6]; with inhibitor at 1 μg/mL): 8 µg/mL
MIC of cefdinir (CDR) ([6]; with inhibitor at 1 μg/mL): 8 µg/mL
MIC of cefixime (CFM) ([6]; with inhibitor at 1 μg/mL): 1 µg/mL
MIC of ceftibuten (CTB) ([6]; with inhibitor at 1 μg/mL): 0.06 µg/mL
MIC of cefalexin (LEX) ([6]; with inhibitor at 2 μg/mL): 4 µg/mL
MIC of cefdinir (CDR) ([6]; with inhibitor at 2 μg/mL): 4 µg/mL
MIC of cefixime (CFM) ([6]; with inhibitor at 2 μg/mL): 1 µg/mL
MIC of ceftibuten (CTB) ([6]; with inhibitor at 2 μg/mL): 0.06 µg/mL
MIC of cefalexin (LEX) ([6]; with inhibitor at 4 μg/mL): 2 µg/mL
MIC of cefdinir (CDR) ([6]; with inhibitor at 4 μg/mL): 2 µg/mL
MIC of cefixime (CFM) ([6]; with inhibitor at 4 μg/mL): 1 µg/mL
MIC of ceftibuten (CTB) ([6]; with inhibitor at 4 μg/mL): 0.06 µg/mL
Cefdinir MIC50 [7]: 0.5 µg/mL
Cefdinir MIC90 [7]: 4 µg/mL
Cefixime MIC50 [7]: 1 µg/mL
